Experiments:
Assay in all cases: CTG-3D luminescence at 96 h relative to day-0 seeding control (ratio to day 0); higher = more growth / less cytotoxicity; PDxO 3D drug screen, 96 h, CTG-3D normalised to day-0 seeding control.
HCI-015 = tested on: HCI-015 (organoid from a triple-negative breast cancer xenograft)
MDA-MB-231 = tested on: MDA-MB-231
HCI-016 = tested on: HCI-016 (organoid from a triple-negative breast cancer xenograft)
HCI-012 = tested on: HCI-012 (organoid from a breast cancer xenograft)
HCI-005.E2 = tested on: HCI-005.E2 (organoid from a breast cancer xenograft with a HER2-positive history)
HCI-017.E2 = tested on: HCI-017.E2 (organoid from an ER-positive breast cancer xenograft)

C/C=C1\NC(=O)[C@H]2CSSCC/C=C/[C@H](CC(=O)N[C@H](C(C)C)C(=O)N2)OC(=O)[C@H](C(C)C)NC1=O [romidepsin]
CTG-3D luminescence at 96 h
Conditions | 12.5 pM | 0.00025 µM | 0.005 µM | 0.1 µM | 1 µM | 10 µM | 100 µM | 625 fM
HCI-012, days in culture: 143 | 2.11 | 2.61 | 0.686 | 0.0407 | 0.0227 | 0.0103 | -0.00702 | 1.66
HCI-012, days in culture: 162 | 2.25 | 2.64 | 0.53 | 0.0384 | 0.0172 | 0.00772 | -0.00766 | 2.87
HCI-012, days in culture: 201 | 2.24 | 0.795 | 0.629 | -0.145 | -0.118 | -0.159 | -0.214 | 1.98
HCI-015, days in culture: 172 | 1.96 | 1.32 | 1.05 | 0.221 | 0.425 | -0.0523 | -0.0841 | 2.7
HCI-015, days in culture: 191 | 2.51 | 1.79 | 0.707 | 0.312 | 0.256 | 0.0321 | 0.00192 | 2.21
HCI-015, days in culture: 218 | 2.09 | 1.5 | 0.78 | -0.0662 | -0.0737 | -0.275 | -0.342 | 2.07
HCI-016, days in culture: 153 | 2.79 | 0.384 | 0.563 | 0.106 | 0.214 | -0.00553 | -0.0108 | 2.21
HCI-016, days in culture: 172 | 2.29 | 1.31 | 0.385 | 0.107 | 0.127 | 0.00531 | -0.0131 | 1.69
HCI-016, days in culture: 190 | 1.76 | 1.62 | 0.684 | 0.0156 | 0.0109 | -0.0529 | -0.107 | 1.55
HCI-016, days in culture: 199 | 2 | 2.14 | 0.631 | 0.071 | 0.0656 | -0.00558 | -0.0191 | 2.15
HCI-017.E2, days in culture: 85 | 2.46 | 2.08 | 1.87 | 0.329 | 0.2 | 0.0715 | -0.00898 | 2.18

CTG-3D luminescence at 96 h
Conditions | 12.5 pM | 0.00025 µM | 0.005 µM | 0.1 µM | 1 µM | 10 µM | 100 µM | 625 fM
HCI-005.E2 | 1.07 | 0.734 | 0.155 | 0.0737 | 0.0546 | 0.00415 | -0.00471 | 0.827
HCI-017.E2 | 1.34 | 1.36 | 0.657 | 0.298 | 0.151 | 0.033 | -0.0104 | 1.17
MDA-MB-231 | 3.87 | 3.12 | 0.22 | 0.0791 | 0.0421 | -0.000441 | -0.0309 | 4.02

CC(C)n1nc(-c2ccc3oc(N)nc3c2)c2c(N)ncnc21 [sapanisertib]
CTG-3D luminescence at 96 h
Conditions | 12.5 pM | 0.00025 µM | 0.005 µM | 0.1 µM | 1 µM | 10 µM | 100 µM | 625 fM
HCI-012, days in culture: 143 | 1.67 | 2.13 | 1.85 | 1.06 | 0.799 | 0.586 | 0.181 | 1.68
HCI-012, days in culture: 162 | 2.13 | 2.28 | 1.6 | 1.27 | 0.748 | 0.846 | 0.197 | 2.82
HCI-012, days in culture: 201 | 2.95 | 2.02 | 1.89 | 0.938 | 1.37 | 0.293 | 0.0781 | 1.73
HCI-015, days in culture: 172 | 2.06 | 1.81 | 1.9 | 0.761 | 0.765 | 0.544 | 0.204 | 2.17
HCI-015, days in culture: 191 | 1.67 | 1.6 | 1.4 | 0.411 | 0.69 | 0.363 | 0.165 | 1.72
HCI-015, days in culture: 218 | 1.96 | 1.53 | 1.59 | 0.561 | 0.547 | 0.511 | 0.156 | 1.77
HCI-016, days in culture: 153 | 2.9 | 1.03 | 2.18 | 0.842 | 0.922 | 0.411 | 0.0999 | 3.03
HCI-016, days in culture: 172 | 1.87 | 2.06 | 1.85 | 0.699 | 0.584 | 0.407 | 0.191 | 1.68
HCI-016, days in culture: 190 | 1.66 | 1.47 | 1.49 | 0.534 | 0.464 | 0.421 | 0.149 | 1.23
HCI-016, days in culture: 199 | 1.5 | 1.27 | 1.33 | 0.585 | 0.511 | 0.374 | 0.119 | 1.63
HCI-017.E2, days in culture: 85 | 2.96 | 2.53 | 2.39 | 0.979 | 0.43 | 0.202 | 0.141 | 2.59

CTG-3D luminescence at 96 h
Conditions | 12.5 pM | 0.00025 µM | 0.005 µM | 0.1 µM | 1 µM | 10 µM | 100 µM | 625 fM
HCI-005.E2 | 2.06 | 2.01 | 1.9 | 0.62 | 0.362 | 0.282 | 0.0263 | 1.56
HCI-017.E2 | 1.69 | 2.18 | 1.703 | 0.694 | 0.493 | 0.251 | 0.126 | 2.02
MDA-MB-231 | 4.45 | 4.42 | 4.45 | 2.89 | 2.2 | 1.22 | 0.518 | 4.61

Reference: the supplement of paper PMC8882468
